Laboratory results reported in patent US20240158446A1, “CYCLIC COMPOUND HAVING SELECTIVE INHIBITORY ACTION ON KRAS OVER HRAS AND NRAS” (CHUGAI SEIYAKU KABUSHIKI KAISHA, priority 2021, published 2024).
Read-outs that look alike come from different tables or passages of the source.

Experiments:
[1] = target: GDP-bound HRAS wild-type protein (Homo sapiens, UniProt P01112); assay: Binding to HRAS by surface plasmon resonance (SPR), Single Cycle Kinetics; conditions: for HRAS/KRAS (ratio of KD value for HRAS to KD value for KRAS) / HRAS/KRAS (ratio of KD value with respect to HRAS to KD value with respect to KRAS): SPR, GDP-bound HRAS wild-type protein vs GDP-bound KRAS wild-type protein; for HRAS/KRAS (ratio of KD value with respect to GDP-bound HRAS wild-type protein to KD value with respect to KRAS): SPR KD ratio HRAS/KRAS, class symbols
Chain of GDP-bound HRAS wild-type protein (P01112 whole entry): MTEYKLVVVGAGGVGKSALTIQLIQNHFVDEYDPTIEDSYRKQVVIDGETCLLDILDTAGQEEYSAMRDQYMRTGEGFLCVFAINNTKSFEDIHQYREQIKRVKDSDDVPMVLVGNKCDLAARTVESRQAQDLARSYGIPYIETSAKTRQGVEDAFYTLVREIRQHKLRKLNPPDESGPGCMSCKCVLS

[2] = system: human lung cancer strain NCI-H441;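 also: cell proliferation inhibition after four days measured by CellTiter-Glo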
[3] = target: GDP-bound NRAS wild-type protein (Homo sapiens, UniProt P01111); assay: Binding to NRAS by surface plasmon resonance (SPR), Single Cycle Kinetics; conditions: for NRAS/KRAS (ratio of KD value for NRAS to KD value for KRAS) / NRAS/KRAS (ratio of KD value with respect to NRAS to KD value with respect to KRAS): SPR, GDP-bound NRAS wild-type protein vs GDP-bound KRAS wild-type protein; for NRAS/KRAS (ratio of KD value with respect to GDP-bound NRAS wild-type protein to KD value with respect to KRAS): SPR KD ratio NRAS/KRAS, class symbols
Chain of GDP-bound NRAS wild-type protein (P01111 whole entry): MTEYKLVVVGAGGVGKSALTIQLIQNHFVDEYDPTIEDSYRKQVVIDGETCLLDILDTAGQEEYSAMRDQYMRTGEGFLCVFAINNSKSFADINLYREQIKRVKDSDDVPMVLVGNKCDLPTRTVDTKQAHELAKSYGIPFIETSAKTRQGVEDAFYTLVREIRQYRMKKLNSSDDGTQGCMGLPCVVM

[4] = target: GDP-bound KRAS wild-type protein (Homo sapiens, UniProt P01116); assay: Binding to KRAS by surface plasmon resonance (SPR), Single Cycle Kinetics; conditions: GDP-bound KRAS wild-type protein, read-out: KRAS KD
Chain of GDP-bound KRAS wild-type protein (P01116 whole entry): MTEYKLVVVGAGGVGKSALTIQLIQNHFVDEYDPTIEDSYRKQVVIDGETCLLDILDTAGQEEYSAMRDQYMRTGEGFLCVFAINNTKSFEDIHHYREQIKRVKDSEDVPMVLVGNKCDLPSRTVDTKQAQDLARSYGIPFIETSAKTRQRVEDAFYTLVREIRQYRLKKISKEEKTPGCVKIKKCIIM

[5] = SPR Single Cycle Kinetics, 1:1 binding model
[6] = SPR, Single Cycle Kinetics, 1:1 binding model

Compound	HRAS/KRAS (ratio of KD value for HRAS to KD value for KRAS) [1]	IC50 [2] [nM]	NRAS/KRAS (ratio of KD value for NRAS to KD value for KRAS) [3]	Kd ([4]; SPR, Single Cycle Kinetics) [nM]	Kd [4, 5] [nM]	other results
CCOC[C@H]1C(=O)N[C@@H]([C@@H](C)CC)C(=O)N(C)CC(=O)N(C)[C@H]2C/C=C\CCN(C2=O)[C@@H](Cc2ccc(C)cc2)C(=O)N(C)CC(=O)N[C@@H](CCc2cc(F)c(C(F)(F)F)c(F)c2)C(=O)N2C[C@@H](C)C[C@H]2C(=O)NC2(CC(C)(C)C2)C(=O)N(C)[C@@H](C2CCCC2)C(=O)N(C)[C@H](C(=O)N(C)CC)CC(=O)N1C [PP2457]	A (a compound having 10 or more and less than 20 is denoted as A)	13.3	A (a compound having 10 or more and less than 20 is denoted as A)	0.17		
CCC[C@H]1C(=O)N[C@@H]([C@@H](C)CC)C(=O)N(C)CC(=O)N(C)[C@H]2C/C=C\CCN(C2=O)[C@@H](Cc2ccc(C(F)(F)F)cc2)C(=O)N(C)CC(=O)N[C@@H](CCc2ccc(C(F)(F)F)c(OC)c2)C(=O)N2C[C@H](OCC)C[C@H]2C(=O)NC2(CC(C)(C)C2)C(=O)N(C)[C@@H](CC(C)(C)C)C(=O)N(C)[C@H](C(=O)N(C)C)CC(=O)N1C [PP2734]		3.1			0.1	HRAS/KRAS (ratio of KD value with respect to GDP-bound HRAS wild-type protein to KD value with respect to KRAS) [1]: B (a compound having 3 or more and less than 10 is denoted as B); NRAS/KRAS (ratio of KD value with respect to GDP-bound NRAS wild-type protein to KD value with respect to KRAS) [3]: A (a compound having 10 or more and less than 20 is denoted as A)
CCCOC[C@H]1C(=O)N[C@@H]([C@@H](C)CC)C(=O)N(C)CC(=O)N(C)[C@H]2C/C=C\CCN(C2=O)[C@@H](Cc2ccc(C)cc2)C(=O)N(C)CC(=O)N[C@@H](CCc2ccc(C(F)(F)F)c(OC)c2)C(=O)N2C[C@@H](C)C[C@H]2C(=O)N(C)C2(CCC2)C(=O)N(C)[C@@H](C2CCCC2)C(=O)N(C)[C@H](C(=O)N(C)C)CC(=O)N1C [PP2365]	B (a compound having 3 or more and less than 10 is denoted as B)	3.3	A (a compound having 10 or more and less than 20 is denoted as A)	0.02		
CCO[C@@H]1C[C@H]2C(=O)NC3(CCC3)C(=O)N(C)[C@@H](C(CC)CC)C(=O)N(C)[C@H](C(=O)N(C)C)CC(=O)N(C)[C@@H](CC(C)C)C(=O)N[C@@H]([C@@H](C)CC)C(=O)N(C)CC(=O)N(C)[C@H]3C/C=C\CCN(C3=O)[C@@H](Cc3ccc(C(F)(F)F)cc3)C(=O)N(C)CC(=O)N[C@@H](CCc3ccc(Cl)c(Cl)c3)C(=O)N2C1 [PP1217]		17.8				HRAS/KRAS (ratio of KD value for HRAS to KD value for KRAS) ([1]; KD ratio class): A (a compound having 10 or more and less than 20 is denoted as A); NRAS/KRAS (ratio of KD value for NRAS to KD value for KRAS) ([3]; KD ratio class): AA (a compound having 20 or more is denoted as AA); Kd [4, 6]: 0.48 nM
CCC[C@H]1C(=O)N[C@@H]([C@@H](C)CC)C(=O)N(C2CC2)CC(=O)N(C)[C@H]2C/C=C\CCN(C2=O)[C@@H](Cc2ccc(C)cc2)C(=O)N(C)CC(=O)N[C@@H](CCc2ccc(Cl)c(Cl)c2)C(=O)N2C[C@H](OCC)C[C@H]2C(=O)NC2(CC(C)(C)C2)C(=O)N(C)[C@@H](C2CCCC2)C(=O)N(C)[C@H](C(=O)N(C)C)CC(=O)N1C [PP2559]		103			0.91	HRAS/KRAS (ratio of KD value with respect to GDP-bound HRAS wild-type protein to KD value with respect to KRAS) [1]: A (a compound having 10 or more and less than 20 is denoted as A); NRAS/KRAS (ratio of KD value with respect to GDP-bound NRAS wild-type protein to KD value with respect to KRAS) [3]: A (a compound having 10 or more and less than 20 is denoted as A)
CCO[C@@H]1C[C@H]2C(=O)NC3(CC(C)(C)C3)C(=O)N(C)[C@@H](C(CC)CC)C(=O)N(C)[C@H](C(=O)N3CCCCC3)CC(=O)N(C)[C@@H](COC)C(=O)N[C@@H]([C@@H](C)CC)C(=O)N(C)CC(=O)N(C)[C@H]3C/C=C\CCN(C3=O)[C@@H](Cc3ccc(C(F)(F)F)cc3)C(=O)N(C)CC(=O)N[C@@H](CCc3cc(F)c(C(F)(F)F)c(F)c3)C(=O)N2C1 [PP2606]		68.7			0.81	HRAS/KRAS (ratio of KD value with respect to GDP-bound HRAS wild-type protein to KD value with respect to KRAS) [1]: AA (a compound having 20 or more is denoted as AA); NRAS/KRAS (ratio of KD value with respect to GDP-bound NRAS wild-type protein to KD value with respect to KRAS) [3]: AA (a compound having 20 or more is denoted as AA)
CCO[C@@H]1C[C@H]2C(=O)NC3(CCC3)C(=O)N(C)[C@@H](C3CCCC3)C(=O)N(C)[C@H](C(=O)N3CCOCC3)CC(=O)N(C)C(C)(C)C(=O)N[C@@H]([C@@H](C)CC)C(=O)N(C)CC(=O)N(C)[C@H]3CCCCN(C3=O)[C@@H](Cc3ccc(C(F)(F)F)cc3)C(=O)N(C)CC(=O)N[C@@H](CCc3cc(F)c(C(F)(F)F)c(F)c3)C(=O)N2C1 [PP0722]		2600			25	HRAS/KRAS (ratio of KD value with respect to HRAS to KD value with respect to KRAS) [1]: B (a compound having 3 or more and less than 10 is denoted as B); NRAS/KRAS (ratio of KD value with respect to NRAS to KD value with respect to KRAS) [3]: C (A compound having a KD ratio of 0.1 or more and less than 3 is denoted as C)
CCCOC[C@H]1C(=O)N[C@@H]([C@@H](C)CC)C(=O)N(C)CC(=O)N(C)[C@H]2C/C=C\CCN(C2=O)[C@@H](CC2CCC(F)(F)CC2)C(=O)N(C)CC(=O)N[C@@H](CCc2ccc(C(F)(F)F)c(OC)c2)C(=O)N2C[C@@H](C)C[C@H]2C(=O)NC2(CC(C)(C)C2)C(=O)N(C)[C@@H](C(CC)CC)C(=O)N(C)[C@H](C(=O)N(C)C)CC(=O)N1C [PP2483]	A (a compound having 10 or more and less than 20 is denoted as A)	195	A (a compound having 10 or more and less than 20 is denoted as A)	1.6		
CCCO[C@H](C)[C@@H]1NC(=O)[C@H](CC(C)C)N(C)C(=O)C[C@@H](C(=O)N(C)CC)N(C)C(=O)[C@H](C2CCCC2)N(C)C(=O)C2(CC(C)(C)C2)NC(=O)[C@@H]2C[C@H](C)CN2C(=O)[C@H](CCc2ccc(C(F)(F)F)c(OC)c2)NC(=O)CN(C)C(=O)[C@H](Cc2ccc(C)cc2)N2CC/C=C\C[C@@H](C2=O)N(C)C(=O)CN(C)C1=O [PP2416]	B (a compound having 3 or more and less than 10 is denoted as B)	33.1	A (a compound having 10 or more and less than 20 is denoted as A)	0.29		
CCO[C@@H]1C[C@H]2C(=O)NC3(CCC3)C(=O)N(C)[C@@H](C3CCCC3)C(=O)N(CCc3ccccc3)[C@H](C(=O)N3CCOCC3)CC(=O)N(C)[C@@H](CC(C)C)C(=O)N[C@@H]([C@@H](C)CC)C(=O)N(C)CC(=O)N(C)[C@H]3CCCCN(C3=O)[C@@H](Cc3ccc(C(F)(F)F)cc3)C(=O)N(C)CC(=O)N[C@@H](CCc3cc(F)c(C(F)(F)F)c(F)c3)C(=O)N2C1 [PP0652]		208			2.5	HRAS/KRAS (ratio of KD value with respect to HRAS to KD value with respect to KRAS) [1]: B (a compound having 3 or more and less than 10 is denoted as B); NRAS/KRAS (ratio of KD value with respect to NRAS to KD value with respect to KRAS) [3]: B (a compound having 3 or more and less than 10 is denoted as B)
CCCO[C@H](C)[C@@H]1NC(=O)[C@H](COCC)N(C)C(=O)C[C@@H](C(=O)N(C)CC)N(C)C(=O)[C@H](C2CCCC2)N(C)C(=O)C2(CC(C)(C)C2)NC(=O)[C@@H]2C[C@@H](OCC)CN2C(=O)[C@H](CCc2cc(F)c(C(F)(F)F)c(F)c2)NC(=O)CN(C)C(=O)[C@H](Cc2ccc(C)cc2)N2CC/C=C\C[C@@H](C2=O)N(C)C(=O)[C@@H]2CCCN2C1=O [PP2436]	A (a compound having 10 or more and less than 20 is denoted as A)	126	A (a compound having 10 or more and less than 20 is denoted as A)	1.6		
CCO[C@@H]1C[C@H]2C(=O)NC3(CCC3)C(=O)N(C)[C@@H](C(CC)CC)C(=O)N(C)[C@H](C(=O)N3CCOCC3)CC(=O)N(C)[C@@H](CC)C(=O)N[C@@H]([C@@H](C)CC)C(=O)N(C)CC(=O)N(C)[C@H]3C/C=C\CCN(C3=O)[C@@H](Cc3ccc(C(F)(F)F)cc3)C(=O)N(C)CC(=O)N[C@@H](CCc3cc(F)c(C(F)(F)F)c(F)c3)C(=O)N2C1 [PP1286]		58.8				HRAS/KRAS (ratio of KD value for HRAS to KD value for KRAS) ([1]; KD ratio class): A (a compound having 10 or more and less than 20 is denoted as A); NRAS/KRAS (ratio of KD value for NRAS to KD value for KRAS) ([3]; KD ratio class): AA (a compound having 20 or more is denoted as AA); Kd [4, 6]: 0.65 nM
CCO[C@@H]1C[C@H]2C(=O)NC3(CCC3)C(=O)N(C)[C@@H](C3CCCC3)C(=O)N(C)[C@H](C(=O)N(C)C)CC(=O)N(C)[C@@H](Cc3ccc(Cl)c(Cl)c3)C(=O)N[C@@H]([C@@H](C)CC)C(=O)N(C)CC(=O)N(C)[C@H]3CCCCCN(C3=O)[C@@H](Cc3ccc(F)cc3)C(=O)N(C)CC(=O)N[C@@H](CCc3cc(F)c(C(F)(F)F)c(F)c3)C(=O)N2C1 [PP1158]	B (a compound having 3 or more and less than 10 is denoted as B)	57.5	B (a compound having 3 or more and less than 10 is denoted as B)	0.18		
CCC[C@H]1C(=O)N[C@@H](CC(C)C)C(=O)N2C[C@@H](OC)C[C@H]2C(=O)N(C)[C@H]2C/C=C\CCN(C2=O)[C@@H](Cc2ccc(C)cc2)C(=O)N(C)CC(=O)N[C@@H](CCc2cc(F)c(C(F)(F)F)c(F)c2)C(=O)N2C[C@H](OCC)C[C@H]2C(=O)NC2(CCC2)C(=O)N(C)[C@@H](C2CCCC2)C(=O)N(C)[C@H](C(=O)N(C)C)CC(=O)N1C [PP2547]		1060			4.4	HRAS/KRAS (ratio of KD value with respect to GDP-bound HRAS wild-type protein to KD value with respect to KRAS) [1]: B (a compound having 3 or more and less than 10 is denoted as B); NRAS/KRAS (ratio of KD value with respect to GDP-bound NRAS wild-type protein to KD value with respect to KRAS) [3]: A (a compound having 10 or more and less than 20 is denoted as A)
